These compounds were tested against T1, PARP (Homo sapiens, UniProt P09874) (assay: PARP ELISA colorimetric assay of inhibition of PARP catalytic activity (IC50)). Settings: pIC50=-log(IC50), IC50 in molar concentration; ELISA-based PARP kit, 10 minutes of catalysis.
T1 construct: purchased Trevigen 4684-096-01 (enzyme); kit 4684-096-K HT
Type: biochemical
Experimental: Inhibition Constant (IC50) from PARP ELISA
Inhibition of PARP catalytic activity was determined by use of an ELISA-based colorimetric PARP/Apoptosis Assay kit (part number 4684-096-K HT, Trevigen). To each histone coated well in the 96-well plate supplied by the manufacturer (part number 4677-096-P) is added 39 μl of PARP buffer (part number 4671-096-02) and 1 μl of test compound dissolved in DMSO (diluted serially 3-fold 11 times). After mixing, 5 μl of 0.1 nM PARP (part number 4684-096-01) is added and the solution allowed to stand at ambient temperature for 10 minutes. PARP catalysis is initiated with the addition of 5 μl of 100 μM β-nicotinamide adenine dinucleotide (NAD+) (part number 4684-096-02) with activated DNA (part number 4671-096-06). After 10 minutes of catalysis the reaction is quenched by solvent aspiration followed by irrigation of the assay wells 4 times with phosphate buffered saline (PBS) containing 0.1% t-Octylphenoxypolyethoxyethanol (Triton® X-100). Mouse Anti-poly ADP ribose (PAR) monoclonal antibody, goat antimouse immunoglobulin G (IgG)-horse radish peroxidase (HRP) conjugate and HRP substrate are added according to the manufacture's specifications to generate a colorimetric signal proportional to PARP catalytic activity. An IC50 for the test compound is calculated from the equation Absorbance=(Amax−background)/(1+([cmpd]/IC50)^n)+background fit to the 12 point test compound concentration gradient via nonlinear least squares.

T1 sequence (P09874 whole entry): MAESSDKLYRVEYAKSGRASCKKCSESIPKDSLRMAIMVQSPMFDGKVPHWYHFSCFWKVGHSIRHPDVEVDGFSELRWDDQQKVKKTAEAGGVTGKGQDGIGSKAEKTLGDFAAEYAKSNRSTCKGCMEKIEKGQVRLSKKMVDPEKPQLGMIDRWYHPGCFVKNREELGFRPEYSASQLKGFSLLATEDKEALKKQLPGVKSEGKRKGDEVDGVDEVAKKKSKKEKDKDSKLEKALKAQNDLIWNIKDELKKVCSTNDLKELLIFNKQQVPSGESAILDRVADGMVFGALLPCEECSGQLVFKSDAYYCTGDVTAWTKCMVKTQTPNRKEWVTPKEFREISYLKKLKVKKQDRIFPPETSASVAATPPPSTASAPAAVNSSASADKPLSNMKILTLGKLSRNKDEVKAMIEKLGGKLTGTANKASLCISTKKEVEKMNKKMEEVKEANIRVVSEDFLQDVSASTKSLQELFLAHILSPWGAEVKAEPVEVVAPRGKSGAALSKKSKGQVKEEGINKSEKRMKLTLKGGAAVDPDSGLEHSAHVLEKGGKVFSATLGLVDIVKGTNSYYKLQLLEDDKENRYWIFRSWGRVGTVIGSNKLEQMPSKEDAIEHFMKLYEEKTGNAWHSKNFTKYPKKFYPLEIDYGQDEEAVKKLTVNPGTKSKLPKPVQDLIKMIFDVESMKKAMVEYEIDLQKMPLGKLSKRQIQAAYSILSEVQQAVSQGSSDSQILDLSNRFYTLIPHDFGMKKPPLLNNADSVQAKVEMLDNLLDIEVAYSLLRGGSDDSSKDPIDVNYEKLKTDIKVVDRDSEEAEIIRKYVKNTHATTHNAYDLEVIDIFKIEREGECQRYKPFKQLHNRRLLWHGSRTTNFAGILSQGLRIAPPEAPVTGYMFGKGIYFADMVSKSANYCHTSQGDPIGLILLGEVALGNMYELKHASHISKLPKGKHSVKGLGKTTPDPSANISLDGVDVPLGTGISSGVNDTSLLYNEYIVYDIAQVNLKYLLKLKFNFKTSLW

Row | IC50 | Structure (SMILES)
1 | ≥ 50.1 nM | Nc1cccc(-c2ccc(N3CCN(Cc4cnc5c(c4)NC(=O)[C@@H]4CCCCN54)CC3)cc2)n1 [Compound 145, (S)-3-((4-(4-(6-aminopyridin-2-yl)phenyl)piperazin-1-yl)methyl)-7,8,9,10-tetrahydro-5H-dipyrido[1,2-a:3′,2′-e]pyrazin-6(6aH)-one]
2 | ≥ 50.1 nM | O=C1Nc2cc(CN3CCN(c4ccc(-c5cccs5)cc4)CC3)cnc2N2CCCC[C@@H]12 [Compound 147, (S)-3-((4-(4-(thiophen-2-yl)phenyl)piperazin-1-yl)methyl)-7,8,9,10-tetrahydro-5H-dipyrido[1,2-a:3′,2′-e]pyrazin-6(6aH)-one]
3 | 15.8 to 39.8 nM | O=C1Nc2cc(CN3CCN(c4ccc(-c5ccncc5)cc4)CC3)cnc2N2CCCC[C@@H]12 [Compound 148, (S)-3-((4-(4-(pyridin-4-yl)phenyl)piperazin-1-yl)methyl)-7,8,9,10-tetrahydro-5H-dipyrido[1,2-a:3′,2′-e]pyrazin-6(6aH)-one]
4 | ≥ 50.1 nM | O=C1Nc2cc(CN3CCN(c4ccc(-c5ccccc5)cc4)CC3)cnc2N2CCCC[C@@H]12 [Compound 149, (S)-3-((4-(biphenyl-4-yl)piperazin-1-yl)methyl)-7,8,9,10-tetrahydro-5H-dipyrido[1,2-a:3′,2′-e]pyrazin-6(6aH)-one]
5 | ≥ 50.1 nM | Cc1ccccc1-c1ccc(N2CCN(Cc3cnc4c(c3)NC(=O)[C@@H]3CCCCN43)CC2)cc1 [Compound 154, (S)-3-((4-(2′-methylbiphenyl-4-yl)piperazin-1-yl)methyl)-7,8,9,10-tetrahydro-5H-dipyrido[1,2-a:3′,2′-e]pyrazin-6(6aH)-one]
6 | ≥ 50.1 nM | Cc1cnccc1-c1ccc(N2CCN(Cc3cnc4c(c3)NC(=O)[C@@H]3CCCCN43)CC2)cc1 [Compound 155, (S)-3-((4-(4-(3-methylpyridin-4-yl)phenyl)piperazin-1-yl)methyl)-7,8,9,10-tetrahydro-5H-dipyrido[1,2-a:3′,2′-e]pyrazin-6(6aH)-one]
7 | ≥ 50.1 nM | O=C1Nc2cc(CN3CCN(c4ccc(-c5ccccn5)cc4)CC3)cnc2N2CCCC[C@@H]12 [Compound 157, (S)-3-((4-(4-(pyridin-2-yl)phenyl)piperazin-1-yl)methyl)-7,8,9,10-tetrahydro-5H-dipyrido[1,2-a:3′,2′-e]pyrazin-6(6aH)-one]
8 | ≥ 50.1 nM | O=C1Nc2cc(CN3CCN(c4ccc(-c5cccnc5)cc4)CC3)cnc2N2CCCC[C@@H]12 [Compound 158, (S)-3-((4-(4-(pyridin-3-yl)phenyl)piperazin-1-yl)methyl)-7,8,9,10-tetrahydro-5H-dipyrido[1,2-a:3′,2′-e]pyrazin-6(6aH)-one]
9 | ≥ 50.1 nM | Cc1ccc(-c2ccc(N3CCN(Cc4cnc5c(c4)NC(=O)[C@@H]4CCCCN54)CC3)cc2)s1 [Compound 159, (S)-3-((4-(4-(5-methylthiophen-2-yl)phenyl)piperazin-1-yl)methyl)-7,8,9,10-tetrahydro-5H-dipyrido[1,2-a:3′,2′-e]pyrazin-6(6aH)-one]
10 | ≥ 50.1 nM | O=C1Nc2cc(CN3CCN(c4ccc(-c5ccccc5CO)cc4)CC3)cnc2N2CCCC[C@@H]12 [Compound 160, (S)-3-((4-(2′-(hydroxymethyl)biphenyl-4-yl)piperazin-1-yl)methyl)-7,8,9,10-tetrahydro-5H-dipyrido[1,2-a:3′,2′-e]pyrazin-6(6aH)-one]

Further lines, the compound ahead of its results:

Row | Structure (SMILES) | IC50
11 | CC(C)N1CC(=O)Nc2cc(CN3CCC(c4ccc(Cl)cc4)CC3)cnc21 [Compound 96, 7-((4-(4-chlorophenyl)piperidin-1-yl)methyl)-4-isopropyl-3,4-dihydropyrido[2,3-b]pyrazin-2(1H)-one] | ≥ 50.1 nM
12 | CCOC(=O)c1ccc(N2CCN(Cc3cnc4c(c3)NC(=O)[C@@H]3CCCN43)CC2)nc1 [Compound 121, (S)-ethyl 6-(4-((6-oxo-5,6,6a,7,8,9-hexahydropyrido[3,2-e]pyrrolo[1,2-a]pyrazin-3-yl)methyl)piperazin-1-yl)nicotinate] | 15.8 to 39.8 nM
13 | COc1cc(-c2ccc(N3CCN(Cc4cnc5c(c4)NC(=O)[C@@H]4CCCCN54)CC3)cc2)ccn1 [Compound 144, (S)-3-((4-(4-(2-methoxypyridin-4-yl)phenyl)piperazin-1-yl)methyl)-7,8,9,10-tetrahydro-5H-dipyrido[1,2-a:3′,2′-e]pyrazin-6(6aH)-one] | ≥ 50.1 nM
14 | O=C1Nc2cc(CN3CCN(c4ccc(-c5ccsc5)cc4)CC3)cnc2N2CCCC[C@@H]12 [Compound 146, (S)-3-((4-(4-(thiophen-3-yl)phenyl)piperazin-1-yl)methyl)-7,8,9,10-tetrahydro-5H-dipyrido[1,2-a:3′,2′-e]pyrazin-6(6aH)-one] | 15.8 to 39.8 nM
15 | COc1ccc(-c2ccc(N3CCN(Cc4cnc5c(c4)NC(=O)[C@@H]4CCCCN54)CC3)cc2)cn1 [Compound 150, (S)-3-((4-(4-(6-methoxypyridin-3-yl)phenyl)piperazin-1-yl)methyl)-7,8,9,10-tetrahydro-5H-dipyrido[1,2-a:3′,2′-e]pyrazin-6(6aH)-one] | ≥ 50.1 nM
16 | O=C1Nc2cc(CN3CCN(c4ccc(-c5cncnc5)cc4)CC3)cnc2N2CCCC[C@@H]12 [Compound 151, (S)-3-((4-(4-(pyrimidin-5-yl)phenyl)piperazin-1-yl)methyl)-7,8,9,10-tetrahydro-5H-dipyrido[1,2-a:3′,2′-e]pyrazin-6(6aH)-one] | ≥ 50.1 nM
17 | COc1ncc(-c2ccc(N3CCN(Cc4cnc5c(c4)NC(=O)[C@@H]4CCCCN54)CC3)cc2)cn1 [Compound 152, (S)-3-((4-(4-(2-methoxypyrimidin-5-yl)phenyl)piperazin-1-yl)methyl)-7,8,9,10-tetrahydro-5H-dipyrido[1,2-a:3′,2′-e]pyrazin-6(6aH)-one] | 15.8 to 39.8 nM
18 | COc1cnccc1-c1ccc(N2CCN(Cc3cnc4c(c3)NC(=O)[C@@H]3CCCCN43)CC2)cc1 [Compound 153, (S)-3-((4-(4-(3-methoxypyridin-4-yl)phenyl)piperazin-1-yl)methyl)-7,8,9,10-tetrahydro-5H-dipyrido[1,2-a:3′,2′-e]pyrazin-6(6aH)-one] | ≥ 50.1 nM
19 | COc1cccc(-c2ccc(N3CCN(Cc4cnc5c(c4)NC(=O)[C@@H]4CCCCN54)CC3)cc2)n1 [Compound 156, (S)-3-((4-(4-(6-methoxypyridin-2-yl)phenyl)piperazin-1-yl)methyl)-7,8,9,10-tetrahydro-5H-dipyrido[1,2-a:3′,2′-e]pyrazin-6(6aH)-one] | ≥ 50.1 nM

What follows are compounds tested on Jurkat cell line (assay: PARP cellular chemopotentiation assay (MTS cell viability with and without TMZ)). Settings: ratio of EC50 for inhibition of cell viability without and with 100 μM TMZ; Jurkat cells, 96 hours of treatment.
Type: cell-based
Experimental: Potentiation Factor (PF50) Determination from PARP Cellular Chemopotentiation Assay
Jurkat cell line was maintained according to the supplier (American Type Culture Collection (Rockville, Md.)). Cells were seeded in 96-well tissue culture microplates at 10,000 cells per well and cultured for 24 hours prior to addition of compounds, TMZ (Temozolomide) or DMSO (dimethylsulfoxide) vehicle. After 96 hours of treatment, the conversion of MTS ([3-(4,5-dimethylthiazol-2-yl)-5-(3-carboxymethoxyphenyl)-2-(4-sulfophenyl)-2H-tetrazolium, inner salt], Promega, Madison, Wis.) by metabolically active cells was determined through measuring the OD490 nm with a Spectramax microplate reader (Molecular Devices, San Diego, Calif.). To generate concentration-response curves, cells were treated in duplicate with a range of serial compound dilutions (final DMSO concentration was 0.5%) in the absence or presence of 100 μM TMZ chemoreagent. The percentage of viable cells per well was calculated by correction for background and normalizing against DMSO-treated cells. EC50 values for inhibition of cell viability were calculated using XLfit4 MicroSoft Excel curve-fitting software. Chemopotentiation factor PF50 was calculated as the ratio of EC50 values of cells co-treated without and with TMZ, respectively.

Row | Structure (SMILES) | PF50
20 | O=C1Nc2cc(CN3CC=C(c4ccc(Cl)cc4)CC3)cnc2N2CCSC[C@@H]12 [Compound 91, (R)-3-((4-(4-chlorophenyl)-5,6-dihydropyridin-1(2H)-yl)methyl)-6a,7,9,10-tetrahydropyrido[3,2-e][1,4]thiazino[4,3-a]pyrazin-6(5H)-one] | >2000
21 | O=C1Nc2cc(CN3CCN(c4ccc(Cl)cc4)CC3)cnc2N2CCOCC12 (stereo not shown) [Compound 93, 3-((4-(4-chlorophenyl)piperazin-1-yl)methyl)-6a,7,9,10-tetrahydro-[1,4]oxazino[4,3-a]pyrido[3,2-e]pyrazin-6(5H)-one] | ≧0
22 | CN1CCN2c3ncc(CN4CCN(c5ccc(Cl)cc5)CC4)cc3NC(=O)C2C1 (stereo not shown) [Compound 97, 7-[4-(4-Chloro-phenyl)-piperazin-1-ylmethyl]-2-methyl-1,3,4,10a-tetrahydro-2H,9H-2,4a,5,9-tetraaza-phenanthren-10-one] | ≧0
23 | CNC(=O)c1ccc(N2CCN(Cc3cnc4c(c3)NC(=O)[C@@H]3CSCCN43)CC2)cc1 [Compound 98, (R)—N-methyl-4-(4-((6-oxo-5,6,6a,7,9,10-hexahydropyrido[3,2-e][1,4]thiazino[4,3-a]pyrazin-3-yl)methyl)piperazin-1-yl)benzamide] | >5000
24 | O=C(NC1CC1)c1ccc(N2CCN(Cc3cnc4c(c3)NC(=O)[C@@H]3CSCCN43)CC2)cc1 [Compound 99, (R)—N-cyclopropyl-4-(4-((6-oxo-5,6,6a,7,9,10-hexahydropyrido[3,2-e][1,4]thiazino[4,3-a]pyrazin-3-yl)methyl)piperazin-1-yl)benzamide] | >5000
25 | N#Cc1ccc(N2CCN(Cc3cnc4c(c3)NC(=O)C3COCCN43)CC2)nc1 (stereo not shown) [Compound 100, 6-(4-((6-oxo-5,6,6a,7,9,10-hexahydro-[1,4]oxazino[4,3-a]pyrido[3,2-e]pyrazin-3-yl)methyl)piperazin-1-yl)nicotinonitrile] | >10
